Target: T1, AsPC-1 HiBiT-KRASG12D (Homo sapiens, UniProt P01116, G12D)
T1 construct: insert the HiBiT tag onto the N-terminus of one or more of the endogenous KRAS alleles; endogenous in cells; host or cells: AsPC-1 (ATCC CRL-1682), CRISPR-Cas9 knock-in clone, one tagged allele
Assay: HiBiT degradation assay (G12D), AsPC-1 HiBiT-KRASG12D cells
Assay type: cell-based
Conditions: 24 hours treatment; for Dmax: ASPC1, AsPC-1 HiBiT-KRASG12D cells, maximum degradation observed; for DC50: AsPC-1 HiBiT-KRASG12D cells, HiBiT luminescence
Source text: Reagents. […] SW1573 cells are homozygous for the G12C mutation in KRAS, AsPC-1 cells are homozygous for the G12D mutation, and SW620 cells are homozygous for the G12V mutation. […] For degradation assays, 384 well plates were used. Alamar blue was purchased from ThermoFisher scientific (A50101) and used according to manufacturer instructions. The Nano-Glo® HiBiT Lytic Detection System and Nano-Glo® HiBiT Blotting System were purchased from Promega (#N3050 and #N2410) and used according to manufacturer instructions.
To create the AsPC-1 HiBiT-KRASG12D cell line, CRISPR-Cas9 was used to insert the HiBiT tag onto the N-terminus of one or more of the endogenous KRAS alleles. […] After knock-in of the tag, individual clones were isolated by single cell dilution and screened for HiBiT insertion by PCR. […] This clone was used in further studies.
HiBiT degradation assays (G12C and G12D). […] All assays were performed in triplicate. Cells were treated with compounds for 24 hours at 37° C. in an incubator containing 5% CO2. Following treatment, alamar blue was used to determine if any compounds led to a loss in cell viability after 24 hours. The 10× alamar blue reagent was added to a final concentration of 1× as recommended by the manufacturer and cells were returned to the incubator for 4 hours. Plates were then allowed to equilibrate to room temperature and fluorescence was measured using a Perkin-Elmer EnVision. After completion of the fluorescence read, the liquid from each well was removed and the cells were washed with PBS. The Nano-Glo® HiBiT detection reagent was prepared according to the manufacturer's instructions and added to each well after the PBS wash was removed. Following incubation at room temperature for 45 minutes, the luminescence was read using the ultra-sensitive luminescence aperture on the Envision instrument.
Data analysis. Fluorescence values from the alamar blue treatment were normalized to the DMSO-only control for each compound titration.

T1 sequence (P01116 1-188 isoform P01116-2 G12D): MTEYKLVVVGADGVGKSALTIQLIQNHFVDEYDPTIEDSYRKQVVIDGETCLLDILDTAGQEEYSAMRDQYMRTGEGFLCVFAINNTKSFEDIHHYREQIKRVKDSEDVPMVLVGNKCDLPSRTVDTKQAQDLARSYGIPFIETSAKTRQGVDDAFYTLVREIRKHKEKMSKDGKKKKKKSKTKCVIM

Row | Compound | Dmax | DC50
1 | CCc1cccc2cc(O)cc(-c3ncc4c(N5CC6CCC(C5)N6)nc(OCCN5CCC(CC6(F)CCN(CC(=O)N[C@H](C(=O)N7C[C@H](O)C[C@H]7C(=O)N[C@@H](C)c7ccc(-c8scnc8C)cc7)C(C)(C)C)CC6)CC5)nc4c3F)c12 [Compound 260, (2S,4R)-1-[(2S)-2-(2-{4-[(1-{2-[(4-{3,8-diazabicyclo[3.2.1]octan-3-yl}-7-(8-ethyl-3-hydroxynaphthalen-1-yl)-8-fluoropyrido[4,3-d]pyrimidin-2-yl)oxy]ethyl}piperidin-4-yl)methyl]-4-fluoropiperidin-1-yl}acetamido)-3,3-dimethylbutanoyl]-4-hydroxy-N-[(1S)-1-[4-(4-methyl-1,3-thiazol-5-yl)phenyl]ethyl]pyrrolidine-2-carboxamide] | 80 to 100% | < 600 nM
2 | CCc1cccc2cc(O)cc(-c3ncc4c(N5CC6CCC(C5)N6)nc(OCCN5CCC(CC6CN(c7cc([C@H](C(=O)N8C[C@H](O)C[C@H]8C(=O)N[C@@H](C)c8ccc(-c9scnc9C)cc8)C(C)C)on7)C6)CC5)nc4c3F)c12 [Compound 81, (2S,4R)-1-[(2R)-2-(3-{3-[(1-{2-[(4-{3,8-diazabicyclo[3.2.1]octan-3-yl}-7-(8-ethyl-3-hydroxynaphthalen-1-yl)-8-fluoropyrido[4,3-d]pyrimidin-2-yl)oxy]ethyl}piperidin-4-yl)methyl]azetidin-1-yl}-1,2-oxazol-5-yl)-3-methylbutanoyl]-4-hydroxy-N-[(1S)-1-[4-(4-methyl-1,3-thiazol-5-yl)phenyl]ethyl]pyrrolidine-2-carboxamide] | 80 to 100% | < 600 nM
3 | CCc1cccc2cc(O)cc(-c3ncc4c(N5CCCCCC5)nc(OC[C@]56CCCN5[C@H](COC(=O)N5CC(Oc7cc([C@H](C(=O)N8C[C@H](O)C[C@H]8C(=O)N[C@@H](C)c8ccc(-c9scnc9C)cc8)C(C)C)on7)C5)CC6)nc4c3F)c12 [Compound 300] | 80 to 100% | < 600 nM
4 | CCc1cccc2cc(O)cc(-c3ncc4c(N5CC6CCC(C5)N6)nc(OC[C@]56CCCN5[C@H](CN5CCC(COc7cc([C@H](C(=O)N8C[C@H](O)C[C@H]8C(=O)N[C@@H](C)c8ccc(-c9scnc9C)cc8)C(C)C)on7)CC5)CC6)nc4c3F)c12 [Compound 111, (2S,4R)-1-[(2R)-2-{3-[(1-{[(3S,7aR)-7a-{[(4-{3,8-diazabicyclo[3.2.1]octan-3-yl}-7-(8-ethyl-3-hydroxynaphthalen-1-yl)-8-fluoropyrido[4,3-d]pyrimidin-2-yl)oxy]methyl}-hexahydro-1H-pyrrolizin-3-yl]methyl}piperidin-4-yl)methoxy]-1,2-oxazol-5-yl}-3-methylbutanoyl]-4-hydroxy-N-[(1S)-1-[4-(4-methyl-1,3-thiazol-5-yl)phenyl]ethyl]pyrrolidine-2-carboxamide] | 80 to 100% | < 600 nM
5 | CCc1cccc2cc(O)cc(-c3ncc4c(N5CC6CCC(C5)N6)nc(OCCN5CCC(COc6cc([C@@H](C(=O)N7C[C@H](O)C[C@H]7C(=O)N[C@@H](C)c7ccc(-c8ccnn8C)cc7)C(C)C)on6)CC5)nc4c3F)c12 (relative stereo) [Compound 142, (2S,4R*)-1-[(2S)-2-{3-[(1-{2-[(4-{3,8-diazabicyclo[3.2.1]octan-3-yl}-7-(8-ethyl-3-hydroxynaphthalen-1-yl)-8-fluoropyrido[4,3-d]pyrimidin-2-yl)oxy]ethyl}piperidin-4-yl)methoxy]-1,2-oxazol-5-yl}-3-methylbutanoyl]-4-hydroxy-N-[(1S)-1-[4-(1-methyl-1H-pyrazol-5-yl)phenyl]ethyl]pyrrolidine-2-carboxamide] | – | > 3000 nM
6 | CCc1cccc2cc(O)cc(-c3ncc4c(N5CC6CCC(C5)N6)nc(OC[C@]56CCCN5[C@H](COC(=O)N5CCC(Oc7cc([C@H](C(=O)N8C[C@H](O)C[C@H]8C(=O)N[C@@H](C)c8ccc(-c9scnc9C)cc8)C(C)C)on7)CC5)CC6)nc4c3F)c12 [Compound 116, [(3S,7aR)-7a-{[(4-{3,8-diazabicyclo[3.2.1]octan-3-yl}-7-(8-ethyl-3-hydroxynaphthalen-1-yl)-8-fluoropyrido[4,3-d]pyrimidin-2-yl)oxy]methyl}-hexahydro-1H-pyrrolizin-3-yl]methyl 4-({5-[(2R)-1-[(2S,4R)-4-hydroxy-2-{[(1S)-1-[4-(4-methyl-1,3-thiazol-5-yl)phenyl]ethyl]carbamoyl}pyrrolidin-1-yl]-3-methyl-1-oxobutan-2-yl]-1,2-oxazol-3-yl}oxy)piperidine-1-carboxylate] | 80 to 100% | < 600 nM
7 | CCc1cccc2cc(O)cc(-c3ncc4c(N5CCCCCC5)nc(OC[C@]56CCCN5[C@H](COC(=O)N5CC7(C5)CN(c5cc([C@H](C(=O)N8C[C@H](O)C[C@H]8C(=O)N[C@@H](C)c8ccc(-c9scnc9C)cc8)C(C)C)on5)C7)CC6)nc4c3F)c12 [Compound 283, [(3S,8R)-8-[[4-(azepan-1-yl)-7-(8-ethyl-3-hydroxy-1-naphthyl)-8-fluoro-pyrido[4,3-d]pyrimidin-2-yl]oxymethyl]-1,2,3,5,6,7-hexahydropyrrolizin-3-yl]methyl 6-[5-[(1R)-1-[(2S,4R)-4-hydroxy-2-[[(1S)-1-[4-(4-methylthiazol-5-yl)phenyl]ethyl]carbamoyl]pyrrolidine-1-carbonyl]-2-methyl-propyl]isoxazol-3-yl]-2,6-diazaspiro[3.3]heptane-2-carboxylate] | 80 to 100% | < 600 nM
8 | CCc1cccc2cncc(-c3ncc4c(N5CC6CCC(C5)N6)nc(OCCN5CCC(COc6cc([C@H](C(=O)N7C[C@H](O)C[C@H]7C(=O)N[C@@H](C)c7ccc(-c8scnc8C)cc7)C(C)C)on6)CC5)nc4c3F)c12 [Compound 304] | – | > 3000 nM
9 | CCc1cccc2cc(O)cc(-c3ncc4c(N5CC6CCC(C5)N6)nc(OC[C@@H]5CC[C@@H](COC(=O)N6CCN(c7cc([C@@H](C(=O)N8C[C@H](O)C[C@H]8C(=O)N[C@@H](C)c8ccc(-c9scnc9C)cc8)C(C)C)on7)C[C@@H]6C)N5C)nc4c3F)c12 [Compound 280, [(2S,5S)-5-[[4-(3,8-diazabicyclo[3.2.1]octan-3-yl)-7-(8-ethyl-3-hydroxy-1-naphthyl)-8-fluoro-pyrido[4,3-d]pyrimidin-2-yl]oxymethyl]-1-methyl-pyrrolidin-2-yl]methyl (2S)-4-[5-[(1S)-1-[(2S,4R)-4-hydroxy-2-[[(1S)-1-[4-(4-methylthiazol-5-yl)phenyl]ethyl]carbamoyl]pyrrolidine-1-carbonyl]-2-methyl-propyl]isoxazol-3-yl]-2-methyl-piperazine-1-carboxylate] | 20 to 60% | 600 to 1000 nM
10 | CCc1cccc2cc(O)cc(-c3ncc4c(N5CC6CCC(C5)N6)nc(OC[C@]56CCCN5[C@H](COc5cc([C@H](C(=O)N7C[C@H](O)C[C@H]7C(=O)N[C@@H](C)c7ccc(-c8scnc8C)cc7)C(C)C)on5)CC6)nc4c3F)c12 [Compound 323, (2S,4R)-1-[(2R)-2-(3-{[(3S,7aR)-7a-{[(4-{3,8-diazabicyclo[3.2.1]octan-3-yl}-7-(8-ethyl-3-hydroxynaphthalen-1-yl)-8-fluoropyrido[4,3-d]pyrimidin-2-yl)oxy]methyl}-hexahydro-1H-pyrrolizin-3-yl]methoxy}-1,2-oxazol-5-yl)-3-methylbutanoyl]-4-hydroxy-N-[(1S)-1-[4-(4-methyl-1,3-thiazol-5-yl)phenyl]ethyl]pyrrolidine-2-carboxamide] | 60 to 80% | –
11 | CCc1cccc2cc(O)cc(-c3ncc4c(N5CC6CCC(C5)N6)nc(OC[C@@]56CCCN5[C@H](COC(=O)N5CC(Oc7cc([C@@H](C(=O)N8C[C@H](O)C[C@H]8C(=O)N[C@@H](C)c8ccc(-c9scnc9C)cc8)C(C)C)on7)C5)CC6)nc4c3F)c12 [Compound 127, [(3S,7aS)-7a-{[(4-{3,8-diazabicyclo[3.2.1]octan-3-yl}-7-(8-ethyl-3-hydroxynaphthalen-1-yl)-8-fluoropyrido[4,3-d]pyrimidin-2-yl)oxy]methyl}-hexahydro-1H-pyrrolizin-3-yl]methyl 3-({5-[(2S)-1-[(2S,4R)-4-hydroxy-2-{[(1S)-1-[4-(4-methyl-1,3-thiazol-5-yl)phenyl]ethyl]carbamoyl}pyrrolidin-1-yl]-3-methyl-1-oxobutan-2-yl]-1,2-oxazol-3-yl}oxy)azetidine-1-carboxylate] | < 20% | 600 to 1000 nM
12 | CCc1cccc2cc(O)cc(-c3ncc4c(N5CC6CCC(C5)N6)nc(OCCN5CCC(C)(COc6cc([C@@H](C(=O)N7C[C@H](O)C[C@H]7C(=O)N[C@@H](C)c7ccc(-c8scnc8C)cc7)C(C)C)on6)CC5)nc4c3F)c12 [Compound 31, (2S,4R)-1-[(2S)-2-{3-[(1-{2-[(4-{3,8-diazabicyclo[3.2.1]octan-3-yl}-7-(8-ethyl-3-hydroxynaphthalen-1-yl)-8-fluoropyrido[4,3-d]pyrimidin-2-yl)oxy]ethyl}-4-methylpiperidin-4-yl)methoxy]-1,2-oxazol-5-yl}-3-methylbutanoyl]-4-hydroxy-N-[(1S)-1-[4-(4-methyl-1,3-thiazol-5-yl)phenyl]ethyl]pyrrolidine-2-carboxamide] | – | > 3000 nM
